From patent US20250388565A1, “ESTROGEN RECEPTOR ALPHA DEGRADERS AND METHODS OF USE THEREOF” (Relay Therapeutics, Inc., priority 2022, published 2025)

The compounds below were run against T1, ERα protein (HiBiT-tagged) in ESR1_HiBiT KI MCF7 cells (Homo sapiens, UniProt P03372) (assay: Nano Glo HiBiT Lytic Degradation Assay). Conditions: 6 hours with compound, 14-point dose response 1:3, bell-shape curve fit, half-maximal effect of first Hill model, read-out: MCF7 ESR1 HiBiT - (DC50).
T1 sequence (P03372 1-595): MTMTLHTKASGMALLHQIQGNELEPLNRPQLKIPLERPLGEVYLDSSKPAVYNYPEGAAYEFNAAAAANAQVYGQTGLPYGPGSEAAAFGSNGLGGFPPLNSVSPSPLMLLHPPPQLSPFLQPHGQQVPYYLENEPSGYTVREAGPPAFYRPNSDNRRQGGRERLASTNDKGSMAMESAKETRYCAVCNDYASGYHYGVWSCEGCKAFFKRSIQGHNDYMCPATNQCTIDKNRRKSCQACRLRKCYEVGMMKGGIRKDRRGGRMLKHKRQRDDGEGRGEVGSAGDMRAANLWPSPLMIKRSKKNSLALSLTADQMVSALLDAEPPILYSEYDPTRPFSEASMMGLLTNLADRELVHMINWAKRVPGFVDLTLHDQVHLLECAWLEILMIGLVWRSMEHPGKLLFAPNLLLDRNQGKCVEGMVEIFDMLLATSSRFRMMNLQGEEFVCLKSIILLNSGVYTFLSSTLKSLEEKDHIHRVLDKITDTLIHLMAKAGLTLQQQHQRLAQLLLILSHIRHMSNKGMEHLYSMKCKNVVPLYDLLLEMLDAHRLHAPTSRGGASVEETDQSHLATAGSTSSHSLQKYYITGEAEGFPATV
Format: cell-based
Description: Selected compounds of the present disclosure were tested in a Nano Glo HiBiT Lytic Degradation Assay to measure the level of ERα protein degradation in MCF7 cells.
Cell culture: ESR1_HiBiT KI MCF7 cells were maintained in growth media without antibiotics. Cells were maintained in exponential growth phase, between 40% and 90% confluency.
Cell seeding: Cells were counted using a Vi-Cell and seeded in a 384-well flat-bottom microplate (cell culture-treated) at 4000 cells/well in 25 μL of growth medium using a BioTek MultiFlo Multimode Dispenser. Plates were incubated for 24 h at 37° C., 5% CO2, >95% relative humidity.
Compound preparation: Compounds were screened as 14-point dose response curves 1:3 dilutions. DMSO is used as the vehicle control and all wells were normalized to the same final DMSO concentration (0.1% v/v). Compounds were dosed using an Echo Acoustic Liquid Handler, 25 nL of 1000× (10 mM top concentration) DMSO stock/well. Cells were incubated with compounds for 6 hours at 37° C., 5% CO2, >95% relative humidity. Each compound was run in duplicate.
Nano Glo HiBiT Lytic Degradation Assay: HiBiT-tagged ERα protein levels were quantified using a Nano Glo HiBiT Lytic Degradation Assay following the manufacturer's protocol. Briefly, the Nano-Glo® HiBiT Lytic Reagent was prepared by diluting the LgBiT Protein reagent (1:100) and the Nano-Glo® HiBiT Lytic Substrate (1:50) into Nano-Glo® HiBiT Lytic Buffer at room temperature. The 384-well microplate were equilibrated to room temperature and 25 μL of Nano-Glo® HiBiT Lytic Reagent was added to each well. Samples were mixed by placing the 384-well microplate on an orbital shaker for 10 minutes. Luminescence was measured using an EnVision 2105 Multimode Plate Reader.
Data processing and analysis: Background signal (wells containing growth medium without cells) was subtracted from individual relative light units (RLU) values and the resulting values were normalized to the DMSO control well values. Dose responses were analyzed with Genedata Screener® using a bell-shape curve fit and the concentrations corresponding to the half-maximal effect of the first Hill model were used as DC50 values.

DC50 [nM] | SMILES
45.8 | CC1(C)CCC([C@H]2CCc3cc(O)ccc3[C@H]2c2ccc(N3CCC(CN4CCN(c5ccc6c(c5)CN([C@H]5CCC(=O)NC5=O)C6=O)CC4)CC3)cc2)CC1 (single isomer, unassigned) [Compound I-105]
1030 | CC1(C)CCC([C@@H]2CCc3cc(O)ccc3[C@@H]2c2ccc(N3CCC(CN4CCN(c5ccc6c(c5)CN([C@H]5CCC(=O)NC5=O)C6=O)CC4)CC3)cc2)CC1 (single isomer, unassigned) [Compound I-106]
≥ 10000 | O=C1CCC(N2Cc3cc(N4CCN(CC5CCN(c6ccc([C@@H]7c8ccc(O)cc8CC[C@@H]7c7cccnc7)cc6)CC5)CC4)ccc3C2=O)C(=O)N1 (single isomer, unassigned) [Compound I-107]
17.3 | O=C1CCC(N2Cc3cc(N4CCN(CC5CCN(c6ccc([C@H]7c8ccc(O)cc8CC[C@H]7c7cccnc7)cc6)CC5)CC4)ccc3C2=O)C(=O)N1 (single isomer, unassigned) [Compound I-108]
1400 | O=C1CC[C@H](N2Cc3cc(N4CCN(CC5CCN(c6ccc([C@@H]7c8ccc(O)cc8CC[C@@H]7c7cccc(OC(F)(F)F)c7)cc6)CC5)CC4)ccc3C2=O)C(=O)N1 (single isomer, unassigned) [Compound I-109]
0.155 | O=C1CC[C@H](N2Cc3cc(N4CCN(CC5CCN(c6ccc([C@H]7c8ccc(O)cc8CC[C@H]7c7cccc(OC(F)(F)F)c7)cc6)CC5)CC4)ccc3C2=O)C(=O)N1 (single isomer, unassigned) [Compound I-110]
332 | CC[C@H]1CCc2cc(O)ccc2[C@H]1c1ccc(N2CCC(CN3CCN(c4ccc5c(c4)CN([C@H]4CCC(=O)NC4=O)C5=O)CC3)CC2)cc1 (single isomer, unassigned) [Compound I-111]
0.14 | CC[C@@H]1CCc2cc(O)ccc2[C@@H]1c1ccc(N2CCC(CN3CCN(c4ccc5c(c4)CN([C@H]4CCC(=O)NC4=O)C5=O)CC3)CC2)cc1 (single isomer, unassigned) [Compound I-112]
0.79 | C[C@@H]1O[C@H](C2CCCCC2)[C@H](c2ccc(N3CCC(CN4CCN(c5ccc6c(c5)CN([C@H]5CCC(=O)NC5=O)C6=O)CC4)CC3)cc2)c2ccc(O)cc21 (single isomer, unassigned) [Compound I-205, (S)-3-(5-(4-((1-(4-((1*S,3*R,4*R)-3-cyclohexyl-7-hydroxy-1-methylisochroman-4-yl)phenyl)piperidin-4-yl)methyl)piperazin-1-yl)-1-oxoisoindolin-2-yl)piperidine-2,6-dione]
≥ 10000 | CC(C)C[C@@H]1OCc2cc(O)ccc2[C@@H]1c1ccc(N2CCC(CN3CCN(c4ccc5c(c4)CN([C@H]4CCC(=O)NC4=O)C5=O)CC3)CC2)cc1 (single isomer, unassigned) [Compound I-221]
0.32 | CC(C)C[C@@H]1OCc2cc(O)ccc2[C@H]1c1ccc(N2CCC(CN3CCN(c4ccc5c(c4)CN([C@H]4CCC(=O)NC4=O)C5=O)CC3)CC2)cc1 (single isomer, unassigned) [Compound I-222]
10 | CC(C)C[C@H]1OCc2cc(O)ccc2[C@@H]1c1ccc(N2CCC(CN3CCN(c4ccc5c(c4)CN([C@H]4CCC(=O)NC4=O)C5=O)CC3)CC2)cc1 (single isomer, unassigned) [Compound I-223]
0.48 | CC(C)C[C@H]1OCc2cc(O)ccc2[C@H]1c1ccc(N2CCC(CN3CCN(c4ccc5c(c4)CN([C@H]4CCC(=O)NC4=O)C5=O)CC3)CC2)cc1 (single isomer, unassigned) [Compound I-224]
59 | CC(C)[C@@H]1OCc2cc(O)ccc2[C@@H]1c1ccc(N2CCC(CN3CCN(c4ccc5c(c4)CN([C@H]4CCC(=O)NC4=O)C5=O)CC3)CC2)cc1 (single isomer, unassigned) [Compound I-226]
4 | C[C@@H](C1CC1)[C@H]1CC(F)(F)c2cc(O)ccc2[C@H]1c1ccc(N2CCC(CN3CCN(c4ccc5c(c4)CN([C@H]4CCC(=O)NC4=O)C5=O)CC3)CC2)cc1 (single isomer, unassigned) [Compound I-227]
15 | C[C@H](C1CC1)[C@H]1CC(F)(F)c2cc(O)ccc2[C@H]1c1ccc(N2CCC(CN3CCN(c4ccc5c(c4)CN([C@H]4CCC(=O)NC4=O)C5=O)CC3)CC2)cc1 (single isomer, unassigned) [Compound I-228]
1 | O=C1CC[C@H](N2Cc3cc(N4CCN(CC5CCN(c6ccc([C@@H]7c8ccc(O)cc8CO[C@@H]7CC7CC7)cc6)CC5)CC4)ccc3C2=O)C(=O)N1 (single isomer, unassigned) [Compound I-230]
≥ 10000 | O=C1CC[C@H](N2Cc3cc(N4CCN(CC5CCN(c6ccc([C@H]7c8ccc(O)cc8CO[C@H]7CC7CC7)cc6)CC5)CC4)ccc3C2=O)C(=O)N1 (single isomer, unassigned) [Compound I-231]
0.92 | O=C1CC[C@H](N2Cc3cc(N4CCN(CC5CCN(c6ccc([C@@H]7c8ccc(O)cc8CO[C@@H]7CC7CCCC7)cc6)CC5)CC4)ccc3C2=O)C(=O)N1 (single isomer, unassigned) [Compound I-232]
31 | O=C1CC[C@H](N2Cc3cc(N4CCN(CC5CCN(c6ccc([C@H]7c8ccc(O)cc8CO[C@H]7CC7CCCC7)cc6)CC5)CC4)ccc3C2=O)C(=O)N1 (single isomer, unassigned) [Compound I-233]
≥ 10000 | Cc1cc(N2CCC(CN3CCN(c4ccc5c(c4)CN([C@H]4CCC(=O)NC4=O)C5=O)CC3)CC2)cc(F)c1[C@H]1c2ccc(O)cc2CC[C@H]1C1CCCCC1 (single isomer, unassigned) [Compound I-235]
3300 | O=C1CC[C@H](N2Cc3cc(N4CCN(CC5CCN(c6ccc([C@@H]7c8ccc(O)cc8CO[C@@H]7C7CC7)cc6)CC5)CC4)ccc3C2=O)C(=O)N1 (single isomer, unassigned) [Compound I-242]
3 | O=C1CC[C@H](N2Cc3cc(N4CCN(CC5CCN(c6ccc([C@H]7c8ccc(O)cc8CO[C@H]7C7CC7)cc6)CC5)CC4)ccc3C2=O)C(=O)N1 (single isomer, unassigned) [Compound I-243]
22 | C[C@@H]1O[C@H](C2CCCCC2)[C@@H](c2ccc(N3CCC(CN4CCN(c5ccc6c(c5)CN([C@H]5CCC(=O)NC5=O)C6=O)CC4)CC3)cc2)c2ccc(O)cc21 (single isomer, unassigned) [Compound I-252]
0.45 | C[C@H]1O[C@@H](C2CCCCC2)[C@H](c2ccc(N3CCC(CN4CCN(c5ccc6c(c5)CN([C@H]5CCC(=O)NC5=O)C6=O)CC4)CC3)cc2)c2ccc(O)cc21 (single isomer, unassigned) [Compound I-253]
41 | C[C@@H]1O[C@@H](C2CCCCC2)[C@H](c2ccc(N3CCC(CN4CCN(c5ccc6c(c5)CN([C@H]5CCC(=O)NC5=O)C6=O)CC4)CC3)cc2)c2ccc(O)cc21 (single isomer, unassigned) [Compound I-254]
0.87 | C[C@H]1O[C@H](C2CCCCC2)[C@@H](c2ccc(N3CCC(CN4CCN(c5ccc6c(c5)CN([C@H]5CCC(=O)NC5=O)C6=O)CC4)CC3)cc2)c2ccc(O)cc21 (single isomer, unassigned) [Compound I-255]
18 | C[C@@]1(C2CCCCC2)OCc2cc(O)ccc2[C@@H]1c1ccc(N2CCC(CN3CCN(c4ccc5c(c4)CN([C@H]4CCC(=O)NC4=O)C5=O)CC3)CC2)cc1 (single isomer, unassigned) [Compound I-256]
17 | O=C1CC[C@H](N2Cc3cc(N4CCN(CC5CCN(c6ccc([C@H]7c8ccc(O)cc8CC[C@@]78CCCc7ccccc78)cc6)CC5)CC4)ccc3C2=O)C(=O)N1 (single isomer, unassigned) [Compound I-266]
6 | C[C@H]1OC2(CCCCC2)[C@H](c2ccc(N3CCC(CN4CCN(c5ccc6c(c5)CN([C@H]5CCC(=O)NC5=O)C6=O)CC4)CC3)cc2)c2ccc(O)cc21 (single isomer, unassigned) [Compound I-269]
